The text below walks through data of article PMC6704644 (Journal of Experimental & Clinical Cancer Research : CR, 2019).

The assay deals with T1, mPGES-1 (microsomal prostaglandin E synthase-1) (Homo sapiens, UniProt O14684).
T1 construct: gene PTGES
T1 sequence (O14684 1-152): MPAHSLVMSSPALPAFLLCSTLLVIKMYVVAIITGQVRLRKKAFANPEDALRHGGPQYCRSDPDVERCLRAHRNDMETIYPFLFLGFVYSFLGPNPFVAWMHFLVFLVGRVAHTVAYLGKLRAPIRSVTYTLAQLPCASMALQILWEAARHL
Nature of the assay: CETSA in U87 cell lysates (temperature- and dose-dependent), plus enzyme activity inhibition IC50. The format is cell-based.

Regarding `O=C(/C=C/c1ccc(O)cc1)c1ccc(O)cc1O` [ISL, isoliquiritigenin], the IC50 is 17.4 µM.

The IC50 is the midpoint of a concentration-inhibition curve.
